Where two headings read alike, the source gives them in different places.
How the values were obtained:
[1] = test system: skin of hairless mice; experiment: Skin NAD content following topical application of niacin pronutrients; type: in vivo, female hairless mice (HRS-J); details: for Effect on NAD content of the abdomen (in words): where the pronutrient was not applied; for Skin NAD content of abdomen / Skin NAD content of abdomen, %: not the site of application; for Skin NAD content of abdomen: 1% in lotion applied to back once per day for three days; for Skin NAD content of abdomen / Skin NAD content of back: hairless mice; for Skin NAD content of abdomen, % / Skin NAD content of back, %: relative to lotion only = 100; for Skin NAD content of abdomen, %: 1% in lotion applied to back; for Skin NAD content of back, % / Skin NAD content of back: site of application, 1% in lotion; for Skin NAD content of back, %: once per day for three days; for Skin NAD content of back: topical once per day for three days; for Effect on skin NAD content at site of application (in words): topical application, back of hairless mice
Description: In animal experiments, female hairless mice (HRS-J, 6-8 weeks old), received daily topical application of nicotinic acid esters, using 200 mg of commercially available “Vanicream” lotion, at a 1.0% (wt/wt) concentration, for three days. Control animals received Vanicream only.
Animals were euthanized, and dorsal and ventral skin samples were then frozen in liquid nitrogen, and stored at −80° C. In order to analyze NAD and protein content, tissue samples were homogenized, in 0.5M, ice cold HClO4, and then centrifuged at 3000 rpm for 15 minutes. The resulting supernatants were neutralized with ice-cold 2M KOH/0.66M KH2PO4, in order to determine NAD. The NAD was determined in accordance with Jacobson, et al., Meth. Enzymol. 280: 221-230 (1997) incorporated by reference, while a commercially available BCA method was used for protein determination.

[2] = test system: endothelial cells of the blood capillaries; experiment: Erythematous response / vasodilation at the site of topical application
Description: (§1) After three days, skin was removed from both the site of application and from the abdomen of each animal, and the NAD content was analyzed.

[3] = physchem
Description: The lipophilicity is reported as log P values, where P refers to the octanol/water partition coefficient, described supra.
The Poct/w values for these compounds were determined in accordance with Hamisch, et al., J. Chromatog. […] In brief, this HPLC method determines capacity factor (“K′”) for each pronutrient, and also establishes a linear relationship between the logarithm of Poct/w and the logarithm of K′, for short chain pronutrients.

[4] = test system: endothelial cells of blood capillaries; experiment: Skin oxygen content by transcutaneous oxygen monitor after topical lotion; type: in vivo; details: lotion applied topically for thirty minutes, then removed
Description: In this experiment, a transcutaneous oxygen monitor has been used to determine oxygen content in the skin. A lotion containing the test compound was topically applied for thirty minutes. The lotion was then removed and the transcutaneous oxygen monitor was placed on the surface of the skin. […] Butyl benzoate was chosen as the co-ester.

[5] = test system: endothelial cells of the blood capillaries; details: in vivo
Description: as §1

CCCCCCCCCCCCOC(=O)c1cccnc1 [12 carbons]
Effect on NAD content of the abdomen (in words) [1]: some delivery to the abdomen | Skin NAD content of abdomen [1]: 82.6 +/− 14.8 pmol NAD/mg tissue | Skin NAD content of abdomen, % [1]: 137% | Skin NAD content of back, % [1]: 141% | Skin NAD content of back [1]: 129.4 +/− 15.4 pmol NAD/mg tissue | Effect on skin NAD content at site of application (in words) [1]: increased NAD content | Erythematous Response [2]: No

CCCCCCCCCCCCCCOC(=O)c1cccnc1 [14 carbons]
Effect on NAD content of the abdomen (in words) [1]: no increase | Skin NAD content of abdomen [1]: 55.8 +/− 13.8 pmol NAD/mg tissue | Skin NAD content of abdomen, % [1]: 92% | Skin NAD content of back, % [1]: 181% | Skin NAD content of back [1]: 165.7 +/− 12.0 pmol NAD/mg tissue | Effect on skin NAD content at site of application (in words) [1]: most effective | Erythematous Response [2]: No

CCCCOC(=O)c1cccnc1 [4 carbons]
Erythematous Response [2]: Yes

CCCCCCCCOC(=O)c1cccnc1 [8 carbons, octyl nicotinate]
chromatographic logP [3]: 4.8 | Skin oxygen content (PO2) [4]: increase in skin oxygen content | Erythematous Response [2]: Yes

NC(=O)c1cccnc1 [Nicotinamide, reference compound]
Effect on skin NAD content at site of application (in words) [1]: no effect | chromatographic logP [3]: -0.34 | Erythematous Response [5]: No | Vasodilation at the site of topical application [5]: does not cause vasodilation

CCCCCCCCCCOC(=O)c1cccnc1 [10 carbons]
Erythematous Response [2]: Slight

CCCCCCCCCCCCCOC(=O)c1cccnc1 [13 carbons]
Erythematous Response [2]: No

CCCCCCCCCCCCCCCCOC(=O)c1cccnc1 [16 carbons]
Effect on NAD content of the abdomen (in words) [1]: no increase | Skin NAD content of abdomen [1]: 52.1 +/− 10.4 pmol NAD/mg tissue | Skin NAD content of abdomen, % [1]: 86% | Skin NAD content of back, % [1]: 120% | Skin NAD content of back [1]: 109.5 +/− 8.3 pmol NAD/mg tissue | Effect on skin NAD content at site of application (in words) [1]: increased NAD content | Erythematous Response [2]: No

CCCCCCCCCCCCCCCOC(=O)c1cccnc1 [15 carbons]
Erythematous Response [2]: No

CCCCCCCCCCCCCCCCCCOC(=O)c1cccnc1 [18 carbons]
Effect on skin NAD content at site of application (in words) [1]: less effective | Erythematous Response [2]: No

COC(=O)c1cccnc1 [1 carbon]
Erythematous Response [2]: Yes
